Literature values in US20200101029A1, “METHOD AND SYSTEM FOR PRESERVING COGNITIVE CAPACITY DURING AGING” (priority 2018, published 2020).
Read-outs that look alike come from different tables or passages of the source.

Tests used:
[1] = human cohort study
[2] = tested on: genetically-engineered fly; details: spermidine feeding during all their lives
[3] = murine models
[4] = tested on: mice exposed to bleomycin
[5] = 1 gram per day (500 mg twice daily)
[6] = tested on: rat model of Alzheimer's disease

Compound: NCCCCNCCCN [spermidine]
- safety and tolerability of supplementation [1]: safe and excellently tolerated
- aging-associated abnormal protein (excess presynaptic vesicles in olfactory neurons) [2]: prevented
- fly memory over aging [2]: preserved over aging
- safety and tolerability of supplementation [3]: safe and excellently tolerated
- accumulation of damaging protein in the mouse lung ([4]; pre-treatment with spermidine): could reduce or prevent
- removal of established scar tissue in the lung ([4]; subsequent dosing, even at higher dose): did not remove it

Compound: O=c1c(O)c(-c2ccc(O)c(O)c2)oc2cc(O)cc(O)c12 [quercetin]
- patients with improvement of symptoms of at least 25 percent [5]: more than 67%
- tolerability [5]: well tolerated

Compound: Bifidobacterium
- effect on memory deficit [6]: improving memory deficit
